According to patent US20260226108A1, “FUSION POLYPEPTIDE AJ007 AND USE THEREOF” (NANJING ANJI BIOTECHNOLOGY CO, LTD., priority 2023, published 2026):
Residues, ends and D or L forms follow the SMILES beside them.

Experiment: Ocular tissue distribution at equimolar concentration, eye dropping or intravitreal injection (Example 5), ELISA
Format: in vivo, C57BL/6J mice
Text: This example provides an ocular tissue distribution comparison experiment of the polypeptide eye drops (AJ007 eye drops) in Example 2 with an equimolar concentration of the multifunctional fusion polypeptide VI (HM-1), a multifunctional fusion polypeptide VI preparation (HM-1 preparation, with a polypeptide being HM-1 and a formulation of other excipients being the same as the AJ007 eye drops), a fusion polypeptide AJ007 preparation (TAT-HM-1, with a polypeptide being AJ007 and pure water as a vehicle) after eye dropping, and the multifunctional fusion polypeptide VI (HM-1) after intravitreal injection, which is specifically described below.
Animal grouping: […] C57BL/6J mice were randomly divided into a total of 7 time point groups, including 0 h, 10 min, 1 h, 3 h, 7 h, 12 h, and 24 h, with 2 mice in each group.
Experimental process: All the mice in the eye drop administration groups were administered bilateral eye drops 1 time, with 5 μL of a corresponding drug solution dropped into each eye, while 5 μL of a corresponding drug solution was injected into both eyes in the HM-1 intravitreal injection group. At the 7 time points of 0 h, 10 min, 1 h, 3 h, 7 h, 12 h, and 24 h after the completion of administration, the mice in the corresponding groups were respectively subjected to eyeball removal and blood collection, the collected whole blood was immediately centrifuged at 6,000 rpm for 5 minutes, and then, a supernatant was sucked and stored as a sample to be tested. Additionally, 3 tissue sites, namely the vitreous body, the retina, and the RPE/choroid complex, were isolated from an eyeball under a stereomicroscope, into which PBS was added at 1:10 for dilution, followed by grinding and centrifugation at 12,000 rpm for 5 minutes. A supernatant was sucked to serve as a sample to be tested. Subsequently, the concentration of HM-1 or fusion polypeptide AJ007 in each tissue was detected by an ELISA method.

SMILES | maintenance time at the RPE/choroid complex (eye dropping) | maintenance time at the RPE/choroid complex (intravitreal injection)
C[C@H](NC(=O)CNC(=O)[C@@H](N)CCCNC(=N)N)C(=O)N[C@@H](CC(=O)O)C(=O)N[C@@H](CCCNC(=N)N)C(=O)N[C@@H](C)C(=O)NCC(=O)NCC(=O)NCC(=O)NCC(=O)N[C@@H](CCCNC(=N)N)C(=O)NCC(=O)N[C@@H](CC(=O)O)C(=O)O [HM-1, Arg-Gly-Ala-Asp-Arg-Ala-Gly-Gly-Gly-Gly-Arg-Gly-Asp] (H-RGADRAGGGGRGD-OH; N-terminus and C-terminus assumed) | very short | shorter
C[C@H](NC(=O)CNC(=O)[C@H](CCCNC(=N)N)NC(=O)[C@H](CCCNC(=N)N)NC(=O)[C@H](CCCNC(=N)N)NC(=O)[C@H](CCCNC(=N)N)NC(=O)[C@H](CCC(N)=O)NC(=O)[C@H](CCCNC(=N)N)NC(=O)[C@H](CCCNC(=N)N)NC(=O)[C@H](CCCCN)NC(=O)[C@H](CCCCN)NC(=O)[C@H](CCCNC(=N)N)NC(=O)CNC(=O)[C@@H](N)Cc1ccc(O)cc1)C(=O)N[C@@H](CC(=O)O)C(=O)N[C@@H](CCCNC(=N)N)C(=O)N[C@@H](C)C(=O)NCC(=O)NCC(=O)NCC(=O)NCC(=O)N[C@@H](CCCNC(=N)N)C(=O)NCC(=O)N[C@@H](CC(=O)O)C(=O)O [AJ007] (H-YGRKKRRQRRRRGADRAGGGGRGD-OH; N-terminus and C-terminus assumed) | shorter | 
